Columns and labels:
[1] = molecular target: T1, BPTFPHD (L2583–N2751) (Homo sapiens, UniProt Q12830); assay: ITC, association of histone H3 peptides with BPTFPHD; assay type: binding
T1 construct: BPTFPHD (L2583–N2751); made in house; host or cells: E. coli
Description: Isothermal titration calorimetric (ITC) analyses were used to determine the dissociation constant (Kd), the Gibbs free energy of binding (ΔG°), the enthalpy of binding (ΔH°), and the entropy of binding (ΔS°).
ITC studies followed a reported procedure[26]. The buffer used corresponded to that used in the final protein purification step. Briefly, TAF3PHD and KDM4ATTD: [Tris (50 mM) in water (pH 7.5)]; KDM5APHD3 and BTPFPHD: [Tris (50 mM), NaCl (20 mM) in water (pH 7.5)]; [Tris (25 mM), NaCl (50 mM), 1,4-dithiothreitol (1.0 mM) in water (pH 7.5)]. Experiments were conducted using ITC200 automated (GE Healthcare Life Sciences, USA) instrument at 25 °C. Histone peptide titrations were performed with the same reader batches. Solutions of the reader in buffer (25–40 µM) and of the histone H3 peptide (350–600 µM) in buffer were prepared. The prepared solutions were plated into a 96-well plate and inserted into the instrument for analysis. Experiments were performed according to manufacturer’s default settings: Plate pre-rinse syringe clean. A total of 19 injections were performed; each experiment was repeated 3–5 times. Heats of dilution for histone peptides determined in control experiments were subtracted from the titration binding data.

[2] = molecular target: T2, KDM4EJmjC (M1–Q337) (Homo sapiens, UniProt B2RXH2); assay: LC-MS demethylation assay, KDM4EJmjC; assay type: biochemical; settings: LC-MS time-course, KDM4EJmjC 0.5 µM, peptide 5.0 µM, 22 °C
T2 construct: We chose human KDM4EJmjC (M1–Q337); made in house
T2 sequence (B2RXH2 1-337): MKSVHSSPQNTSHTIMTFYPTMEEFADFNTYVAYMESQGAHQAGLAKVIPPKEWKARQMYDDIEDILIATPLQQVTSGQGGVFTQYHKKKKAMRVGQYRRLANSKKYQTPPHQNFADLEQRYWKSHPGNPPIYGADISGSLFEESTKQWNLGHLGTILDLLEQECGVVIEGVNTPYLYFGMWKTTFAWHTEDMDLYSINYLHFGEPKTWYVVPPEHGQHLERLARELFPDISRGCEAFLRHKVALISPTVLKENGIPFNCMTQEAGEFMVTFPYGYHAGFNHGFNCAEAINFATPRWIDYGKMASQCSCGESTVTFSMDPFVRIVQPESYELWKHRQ
Description: KDM4EJmjC demethylation studies of H3_1-15K9me3 or H3_1-15KP9me3 incubations using LC-MS were conducted as reported[31], using Agilent RapidFire 365 and Agilent QTOF 6530 machines. In brief, samples were aspirated under vacuum (~50 µL), passed through a loop (10 µL, 400 ms) and wash on a SPE cartridge A (C4) using solvent A (1.5 mL·min^−1, 4500 ms). Peptides were eluted using solvent B (1.25 mL·min^−1, 4500 ms) and directed to the MS for measurements. The cartridge was equilibrated for the next sample (1.25 mL·min^−1, 500 ms) and needle was cleaned with an organic wash solution. Between each sample, an alternating inorganic, organic and inorganic washes were performed to avoid any potential carry over on the SPE cartridge from previous sample. Solvent A: formic acid (0.1%) in water; Solvent B: formic acid (0.1%), acetonitrile (85%) in water; Inorganic wash: water; Organic wash: acetonitrile. Demethylation reactions were conducted in a temperature-controlled room (22 °C) and the MS machine Real-time monitoring mode. A solution [Peptide (6.0 µM), sodium L-ascorbate (600 µM), (NH4)2Fe(II)(SO4)2 (60 µM), disodium 2OG salt (120 µM) in buffer] […] (100 µL) was added and samples from the solution were taken every 2–2.5 min and measured. Note that the time was recorded between the addition and the first aspiration of the enzymatic reaction mixture [Peptide and Enzyme solution mixture]. […]

[3] = system: KDM7BJmjC (M37–N483); assay: MALDI-TOF demethylation assay, KDM7BJmjC; assay type: biochemical; settings: 1 hr
Excerpt: To investigate whether H3KP9me3 can be demethylated by other human KDM4 subfamily members, recombinant KDM4AJmjC (M1–L359) and KDM4DJmjC (M1–L358) were produced in E. coli following an adaption of literature procedures[38],[39]. […] To test the ability of KDM3 and KDM7 subfamily representatives to demethylate H3KP9me2 or H3KP9me3, KDM3AJmjC (T515–S1317) and KDM7BJmjC (M37–N483) were produced using baculovirus/sf9 and E. coli expression systems, respectively[40],[41]. The synthesis of a histone H3 mimic peptide H3KP9me2 substrate is challenging as the tri-alkylated phosphine group is susceptible to oxidation during synthesis of the protected amino acid and during SPPS requiring oxygen-free conditions. Thus, to investigate if KDM3AJmjC or KDM7BJmjC can catalyse demethylation of H3KP9me2, an appropriate H3KP9me2 substrate was prepared in situ from H3KP9me3 using KDM4EJmjC (2.0 µM), in the presence of KDM3AJmjC (2.0 µM) or KDM7BJmjC (2.0 µM).
A Bruker Daltonics MALDI-TOF/TOF AutoflexSpeed machine and Bruker MTP 384 target plates (polished steel BC, Part: 8280781) were used. The machine was controlled using Flex control (v. 3.4 build 135.10) and Compass for flex series (v. 1.4) software. Measurements were in the positive ion mode with the reflectron mode enabled. […] Samples were then analysed by MALDI-TOF. […]

[4] = system: KDM4DJmjC (M1–L358); assay: MALDI-TOF demethylation assay, KDM4DJmjC; assay type: biochemical, human; settings: KDM4DJmjC 2.4 µM, peptide 5.0 µM, 1 hr, duplicates
Description: A Bruker Daltonics MALDI-TOF/TOF AutoflexSpeed machine and Bruker MTP 384 target plates (polished steel BC, Part: 8280781) were used. The machine was controlled using Flex control (v. 3.4 build 135.10) and Compass for flex series (v. 1.4) software. Measurements were in the positive ion mode with the reflectron mode enabled. Incubations employed ProxiPlate-384™ (Perkin Elmer) plates into which was pipetted a solution of [H3_1-15K9me3 (10.0 µM), (+)-sodium L-ascorbate (1.0 mM), (NH4)2Fe(II)(SO4)2 (100 µM), di-sodium 2-oxoglutarate (200 µM) in buffer (HEPES (50 mM)) in MilliQ (pH 7.5)] (5.0 µL) using ClipTip™ (Thermo Scientific™) pipette tips and E1-ClipTip™ (Thermo Scientific™). The enzyme solution [KDM4EJmjC (1.0 µM) in HEPES (50 mM)] (5.0 µL) was added to initiate reaction at 37 °C. Reactions were quenched with formic acid in water (2%, 5.0 µL).

[5] = 25 °C, H3 1-10 peptide, Tris (50 mM), NaCl (20 mM), pH 7.5, from 3 to 5 experiments, ± SD

Compound	-TΔS° [1, 5] [kcal/mol]	ΔG° [1, 5] [kcal/mol]	ΔH° [1, 5] [kcal/mol]	fold stronger binding (ΔKd), H3KP4me3 versus H3K4me3 ([1]; BPTFPHD)	demethylation [2]	demethylation in combination with KDM4EJmjC ([3]; KDM7BJmjC 2.0 µM plus KDM4EJmjC 2.0 µM, peptide 5.0 µM)	demethylation ([3]; KDM7BJmjC 2.0 µM, H3KP9me2 prepared in situ with KDM4EJmjC)	demethylation [4]
C[C@H](N)C(=O)N[C@@H](CCCNC(=N)N)C(=O)N[C@H](C(=O)N[C@@H](CCCC[P+](C)(C)C)C(=O)N[C@@H](CCC(N)=O)C(=O)N[C@H](C(=O)N[C@@H](C)C(=O)N[C@@H](CCCNC(=N)N)C(=O)N[C@@H](CCCCN)C(=O)N[C@@H](CO)C(N)=O)[C@@H](C)O)[C@@H](C)O [H3KP4me3]	4.7 ± 0.1	-9.1 ± 0.1	-13.8 ± 0.1	~ 7 fold	–	–	–	–
ARTKQTAR(KPme3)STGGKA [H3KP9me3, histone H3 residues 1–15 with trimethylphosphonium lysine analogue at position 9]	–	–	–	–	both are substrates	produced H3KP9me2 (due to KDM4EJmjC catalysis), but did not result in masses consistent with H3KP9me1 or H3KP9	do not catalyse demethylation of H3K9me3 (as anticipated) or H3KP9me3	substantial turnover to H3KP9me2

Reference: article PMC7613515, “Reading and erasing of the phosphonium analogue of trimethyllysine by epigenetic proteins” (Communications Chemistry, 2022)
